Laboratory results taken from patent US20040152784A1, “Pharmaceutical composition and method for treatment of a urea cycle deficiency or sickle-cell anaemia” (Special Products Limited, priority 2002, published 2004).
≈ marks a conversion by molar mass, not a printed value. Entries after “also recorded” stand apart in the source; their conditions may differ. Like-named read-outs stand apart in the source and are kept apart here. One block for each compound: values may come before it. Residues, ends and D or L forms follow the SMILES beside them.

Key:
[1] = cited from earlier work; for Stability / hydrolysis in water: in words
[2] = cited from earlier work
Solubility in water = assay type: physicochemical; details: in water at 10° C.; read-out: maximum solubility of sodium 4-phenylbutyrate
[3] = system: bacterial and fungal growth; assay: Prevention of bacterial and fungal growth in the concentrated flavored solution without preservative; assay type: cell-based; details: 250 mg/ml, no preservative
Source text: This may not apply at much lower concentrations. Therefore, the concentrated solution should be diluted by the patient's carer or guardian immediately before it is consumed by the patient. Thus the patient's carer or guardian should not prepare a jug of ready-to-use liquid to last a week or so.

[4] = Bulk density and powder properties; assay type: physicochemical
Procedure: A pharmaceutical composition made by either of such methods typically has a bulk density of about 52.6 g/100 ml. […] A 25 g quantity of the granulated pharmaceutical composition will thus approximately half fill a 100 ml bottle.

SMILES: COC(=O)[C@H](Cc1ccccc1)NC(=O)[C@@H](N)CC(=O)O [Aspartame] (H-Asp-Phe-OMe)
hydrolyses significantly to phenylalanine (non-sweet) within ([1]; in water): ≤ 6 months
Stability / hydrolysis in water [1]: hydrolyses to phenylalanine within a few weeks; also recorded: Hydrolyses in water
solubility [2]: 10 mg/mL (≈ 34 mM)

SMILES: CC1=CC(=O)NS(=O)(=O)O1 [Potassium acesulfame]
Stability / hydrolysis in water [1]: Stable in water
Dissolution ([2]; in words): Fast dissolution
Solubility in Water ([2]; in words): Very soluble

SMILES: O=C1NS(=O)(=O)c2ccccc21.[Na] [Sodium Saccharine]
Solubility in Water ([2]; in words): Very soluble

SMILES: O=S(=O)([O-])NC1CCCCC1.[Na+] [Sodium cyclamate]
Solubility in Water ([2]; in words): Soluble

SMILES: OC[C@@H](O)[C@@H](O[C@H]1O[C@H](CO)[C@@H](O)[C@H](O)[C@H]1O)[C@H](O)[C@@H](O)CO [Maltitol]
Solubility in Water ([2]; in words): Very soluble

solubility (Solubility in water): 250 mg/mL
bulk density [4]: about 26.4 g/100 ml
hygroscopicity [4]: somewhat hygroscopic
SMILES: O=C([O-])CCCc1ccccc1.[Na+] [Sodium 4-phenylbutyrate]
prevention of bacterial and fungal growth [3]: prevents such growth
